Test results as given in the CheMixHub drug solubility set.

Experiment: xn = mol fraction of the nth substance listed, in the solute-free solvent

CC(=O)Oc1cccc2c1C(=O)c1c(OC(C)=O)cc(C(=O)O)cc1C2=O + CC#N + CCO
solubility (g/100 g solution)
Conditions | 273.15 K | 278.15 K | 283.15 K | 288.15 K | 293.15 K | 298.15 K | 303.15 K | 308.15 K | 313.15 K
x2 = 0.1109 | 0.00681 | 0.00922 | 0.0124 | 0.0163 | 0.0211 | 0.0275 | 0.0344 | 0.0422 | 0.0532
x2 = 0.2191 | 0.0086 | 0.0114 | 0.0156 | 0.0201 | 0.0251 | 0.0316 | 0.0396 | 0.0497 | 0.0623
x2 = 0.3248 | 0.0151 | 0.02 | 0.0259 | 0.032 | 0.0393 | 0.0474 | 0.0557 | 0.0657 | 0.0756
x2 = 0.428 | 0.0245 | 0.0312 | 0.039 | 0.0468 | 0.0553 | 0.0655 | 0.0782 | 0.0921 | 0.108
x2 = 0.5288 | 0.0313 | 0.0399 | 0.0509 | 0.0631 | 0.0754 | 0.0896 | 0.105 | 0.121 | 0.139
x2 = 0.6273 | 0.0353 | 0.0455 | 0.0574 | 0.0703 | 0.0834 | 0.0991 | 0.114 | 0.13 | 0.148
x2 = 0.7236 | 0.0286 | 0.0372 | 0.048 | 0.0598 | 0.0714 | 0.0842 | 0.098 | 0.113 | 0.129
x2 = 0.8178 | 0.0226 | 0.029 | 0.0374 | 0.0457 | 0.0538 | 0.0633 | 0.0742 | 0.0857 | 0.101
x2 = 0.9099 | 0.0216 | 0.0259 | 0.0322 | 0.0392 | 0.0467 | 0.0549 | 0.0647 | 0.0747 | 0.0869

CC(=O)Oc1cccc2c1C(=O)c1c(OC(C)=O)cc(C(=O)O)cc1C2=O + CC(=O)N(C)C + O
solubility (g/100 g solution)
Conditions | x2 = 0.02247 | x2 = 0.04917 | x2 = 0.08143 | x2 = 0.1212 | x2 = 0.1714 | x2 = 0.2368 | x2 = 0.3255 | x2 = 0.4528 | x2 = 0.6506
278.15 K | 0.00282 | 0.0125 | 0.0358 | 0.0823 | 0.255 | 0.368 | 0.38 | 0.452 | 0.496
283.15 K | 0.00402 | 0.0162 | 0.0459 | 0.107 | 0.313 | 0.441 | 0.521 | 0.622 | 0.691
288.15 K | 0.00537 | 0.0204 | 0.0587 | 0.137 | 0.374 | 0.525 | 0.683 | 0.821 | 0.927
293.15 K | 0.00727 | 0.0256 | 0.0748 | 0.173 | 0.444 | 0.633 | 0.885 | 1.07 | 1.18
298.15 K | 0.00929 | 0.0324 | 0.0937 | 0.219 | 0.532 | 0.779 | 1.12 | 1.35 | 1.47
303.15 K | 0.0112 | 0.0405 | 0.119 | 0.274 | 0.633 | 0.95 | 1.38 | 1.69 | 1.81
308.15 K | 0.0139 | 0.0502 | 0.149 | 0.343 | 0.746 | 1.16 | 1.7 | 2.1 | 2.29
313.15 K | 0.0168 | 0.0643 | 0.184 | 0.429 | 0.862 | 1.44 | 2.04 | 2.54 | 2.83

CN1CCC(N(Cc2cccs2)c2ccccc2)CC1 + CC(C)O + O
solubility (g/100 g solution)
Conditions | 278.15 K | 283.15 K | 288.15 K | 293.15 K | 298.15 K | 303.15 K | 308.15 K | 313.15 K | 318.15 K | 323.15 K
x2 = 0.03225 | 0.141 | 0.15 | 0.16 | 0.173 | 0.19 | 0.208 | 0.229 | 0.249 | 0.274 | 0.301
x2 = 0.06974 | 0.326 | 0.345 | 0.365 | 0.394 | 0.428 | 0.466 | 0.508 | 0.551 | 0.601 | 0.656
x2 = 0.1139 | 0.573 | 0.606 | 0.64 | 0.689 | 0.746 | 0.809 | 0.879 | 0.952 | 1.03 | 1.13
x2 = 0.1666 | 0.834 | 0.881 | 0.933 | 1.01 | 1.09 | 1.18 | 1.28 | 1.39 | 1.51 | 1.64
x2 = 0.2307 | 1.04 | 1.1 | 1.18 | 1.28 | 1.4 | 1.51 | 1.64 | 1.78 | 1.95 | 2.12
x2 = 0.3103 | 1.24 | 1.33 | 1.43 | 1.54 | 1.67 | 1.81 | 1.96 | 2.11 | 2.3 | 2.52
x2 = 0.4117 | 1.4 | 1.51 | 1.62 | 1.75 | 1.93 | 2.12 | 2.32 | 2.54 | 2.77 | 3.04
x2 = 0.5454 | 1.55 | 1.68 | 1.82 | 1.99 | 2.15 | 2.34 | 2.58 | 2.83 | 3.11 | 3.42
x2 = 0.7297 | 1.61 | 1.77 | 1.95 | 2.14 | 2.35 | 2.6 | 2.85 | 3.13 | 3.41 | 3.74

Cc1ccc2cc(Br)ccc2n1 + CC(C)O + O
solubility (g/100 g solution)
Conditions | 278.15 K | 283.15 K | 288.15 K | 293.15 K | 298.15 K | 303.15 K | 308.15 K | 313.15 K | 318.15 K | 323.15 K
x2 = 0.03225 | 0.0479 | 0.0553 | 0.0644 | 0.0741 | 0.0853 | 0.0974 | 0.113 | 0.129 | 0.148 | 0.169
x2 = 0.06974 | 0.141 | 0.161 | 0.185 | 0.211 | 0.241 | 0.273 | 0.312 | 0.356 | 0.403 | 0.457
x2 = 0.1139 | 0.263 | 0.301 | 0.346 | 0.393 | 0.446 | 0.505 | 0.576 | 0.655 | 0.74 | 0.837
x2 = 0.1666 | 0.372 | 0.427 | 0.492 | 0.56 | 0.637 | 0.723 | 0.826 | 0.94 | 1.06 | 1.2
x2 = 0.2307 | 0.427 | 0.503 | 0.586 | 0.671 | 0.769 | 0.881 | 0.997 | 1.15 | 1.31 | 1.5
x2 = 0.3103 | 0.482 | 0.567 | 0.673 | 0.787 | 0.904 | 1.04 | 1.19 | 1.37 | 1.57 | 1.79
x2 = 0.4117 | 0.539 | 0.642 | 0.767 | 0.896 | 1.04 | 1.2 | 1.39 | 1.59 | 1.81 | 2.06
x2 = 0.5454 | 0.596 | 0.7 | 0.856 | 1.03 | 1.2 | 1.4 | 1.63 | 1.89 | 2.17 | 2.48
x2 = 0.7297 | 0.657 | 0.815 | 0.972 | 1.16 | 1.33 | 1.56 | 1.81 | 2.1 | 2.4 | 2.78

Nc1cccc2ccncc12 + CC(C)O + O
solubility (g/100 g solution)
Conditions | 278.15 K | 283.15 K | 288.15 K | 293.15 K | 298.15 K | 303.15 K | 308.15 K | 313.15 K | 318.15 K | 323.15 K
x2 = 0.03225 | 0.0706 | 0.0813 | 0.0925 | 0.109 | 0.123 | 0.142 | 0.165 | 0.191 | 0.218 | 0.252
x2 = 0.06974 | 0.141 | 0.163 | 0.184 | 0.215 | 0.244 | 0.279 | 0.323 | 0.372 | 0.424 | 0.489
x2 = 0.1139 | 0.235 | 0.271 | 0.306 | 0.357 | 0.405 | 0.463 | 0.534 | 0.617 | 0.702 | 0.808
x2 = 0.1666 | 0.339 | 0.393 | 0.445 | 0.519 | 0.59 | 0.676 | 0.78 | 0.902 | 1.03 | 1.18
x2 = 0.2307 | 0.393 | 0.466 | 0.559 | 0.658 | 0.767 | 0.883 | 1.02 | 1.18 | 1.36 | 1.58
x2 = 0.3103 | 0.5 | 0.587 | 0.696 | 0.819 | 0.952 | 1.09 | 1.26 | 1.47 | 1.68 | 1.95
x2 = 0.4117 | 0.573 | 0.687 | 0.826 | 0.98 | 1.13 | 1.3 | 1.5 | 1.75 | 2.02 | 2.35
x2 = 0.5454 | 0.633 | 0.765 | 0.915 | 1.08 | 1.25 | 1.46 | 1.7 | 1.97 | 2.3 | 2.69
x2 = 0.7297 | 0.576 | 0.73 | 0.906 | 1.1 | 1.31 | 1.58 | 1.84 | 2.16 | 2.51 | 2.94

Nc1cccc2ccncc12 + CCCO + O
solubility (g/100 g solution)
Conditions | 278.15 K | 283.15 K | 288.15 K | 293.15 K | 298.15 K | 303.15 K | 308.15 K | 313.15 K | 318.15 K | 323.15 K
x2 = 0.03225 | 0.0813 | 0.0931 | 0.106 | 0.124 | 0.14 | 0.162 | 0.187 | 0.216 | 0.247 | 0.285
x2 = 0.06974 | 0.175 | 0.199 | 0.226 | 0.263 | 0.297 | 0.341 | 0.393 | 0.45 | 0.513 | 0.589
x2 = 0.1139 | 0.299 | 0.34 | 0.385 | 0.448 | 0.506 | 0.58 | 0.668 | 0.764 | 0.87 | 0.997
x2 = 0.1666 | 0.433 | 0.493 | 0.56 | 0.652 | 0.739 | 0.848 | 0.978 | 1.12 | 1.27 | 1.46
x2 = 0.2307 | 0.521 | 0.606 | 0.711 | 0.84 | 0.964 | 1.11 | 1.28 | 1.47 | 1.69 | 1.94
x2 = 0.3103 | 0.618 | 0.731 | 0.862 | 1.01 | 1.16 | 1.33 | 1.55 | 1.78 | 2.06 | 2.38
x2 = 0.4117 | 0.686 | 0.822 | 0.992 | 1.18 | 1.36 | 1.59 | 1.84 | 2.12 | 2.44 | 2.82
x2 = 0.5454 | 0.774 | 0.916 | 1.11 | 1.32 | 1.53 | 1.78 | 2.08 | 2.41 | 2.78 | 3.21
x2 = 0.7297 | 0.791 | 0.959 | 1.16 | 1.39 | 1.64 | 1.92 | 2.24 | 2.6 | 3.03 | 3.54
